Measured values from ChEMBL document CHEMBL1201862, “PubChem BioAssay data set” (2004).
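Growth conditions: 96-well plates. Treatment: test compound, 48 hours, 5 concentrations. Analysis: linear interpolation between bracketing concentrations; unreached endpoints set to highest concentration. At the GI50, growth is halved.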 Calls of active or inactive are those of the source. Cut-off read from the data, not from the text of the source: active = GI50 up to about 1.1 µM and inactive = higher.

Assays:
Assay in all cases: NCI-60 cell line screen, 48 h
OVCAR-3 = system: OVCAR-3
SF-295 = system: SF-295
NCI-H23 = system: NCI-H23
CCRF-CEM = system: CCRF-CEM
PC-3 = system: PC-3
DU-145 = system: DU-145
HL-60 = system: HL-60
HCT-15 = system: HCT-15
K562 = system: K562
SK-MEL-2 = system: SK-MEL-2
MDA-N = system: MDA-N
MDA-MB-435 = system: MDA-MB-435
MOLT-4 = system: MOLT-4
SK-OV-3 = system: SK-OV-3
ACHN = system: ACHN
T47D = system: T47D
786-0 = system: 786-0
OVCAR-5 = system: OVCAR-5
TK-10 = system: TK-10
UO-31 = system: UO-31
KM12 = system: KM12
RXF 393 = system: RXF 393
A498 = system: A498
MDA-MB-231 = system: MDA-MB-231
SF-539 = system: SF-539
NCI-H226 = system: NCI-H226
COLO 205 = system: COLO 205
SNB-19 = system: SNB-19
NCI-H460 = system: NCI-H460
M14 = system: M14
OVCAR-8 = system: OVCAR-8
OVCAR-4 = system: OVCAR-4
HCT-116 = system: HCT-116
SNB-75 = system: SNB-75
LOX IMVI = system: LOX IMVI
MCF7 = system: MCF7
SK-MEL-28 = system: SK-MEL-28
EKVX = system: EKVX
RPMI-8226 = system: RPMI-8226
Malme-3M = system: Malme-3M
A549 = system: A549
SK-MEL-5 = system: SK-MEL-5
NCI/ADR-RES = system: NCI/ADR-RES
SF-268 = system: SF-268
CAKI-1 = system: CAKI-1
HOP-62 = system: HOP-62
SN12C = system: SN12C
BT-549 = system: BT-549
HT-29 = system: HT-29
SW-620 = system: SW-620
UACC-62 = system: UACC-62
U-251 = system: U-251
HOP-92 = system: HOP-92
UACC-257 = system: UACC-257
HCC 2998 = system: HCC 2998
IGROV-1 = system: IGROV-1
SR = system: SR
Hs-578T = system: Hs-578T

In the case of COC(=O)c1cc(NC(=O)c2cc(NC(=O)Cc3c[nH]c4ccccc34)cn2C)cn1C, the GI50 (OVCAR-3) was 41.9 µM (inactive), the GI50 (SF-295) was 36.3 µM (inactive) and the GI50 (NCI-H23) was 24.3 µM (inactive). The GI50 (CCRF-CEM) was 32.7 µM (inactive), the GI50 (PC-3) was 19.1 µM (inactive) and the GI50 (DU-145) was > 100 µM (inactive). For the same compound, the GI50 (HL-60) was 34.6 µM (inactive), the GI50 (HCT-15) was 42.8 µM and the GI50 (K562) was 44.4 µM (inactive). The GI50 (SK-MEL-2) was 19.6 µM (inactive), the GI50 (MDA-N) was 37.2 µM (inactive) and the GI50 (MDA-MB-435) was 30.3 µM (inactive). The GI50 (MOLT-4) was 30.7 µM (inactive), the GI50 (SK-OV-3) was 40 µM (inactive) and the GI50 (ACHN) was 35.7 µM (inactive). For the same compound, the GI50 (T47D) was > 100 µM (inactive), the GI50 (786-0) was 56.9 µM (inactive) and the GI50 (OVCAR-5) was 39.3 µM (inactive). The GI50 (TK-10) was 31.5 µM (inactive), the GI50 (UO-31) was 23.5 µM (inactive) and the GI50 (KM12) was 24.3 µM (inactive). For the same compound, the GI50 (RXF 393) was 31.3 µM (inactive), the GI50 (A498) was 24 µM (inactive) and the GI50 (MDA-MB-231) was 25.9 µM (inactive). For the same compound, the GI50 (SF-539) was 56.4 µM (inactive), the GI50 (NCI-H226) was 30.8 µM (inactive) and the GI50 (COLO 205) was 24.2 µM (inactive). The GI50 (SNB-19) was 21.8 µM (inactive), the GI50 (NCI-H460) was 30.5 µM (inactive) and the GI50 (M14) was 33 µM (inactive). For the same compound, the GI50 (OVCAR-8) was 39.4 µM (inactive), the GI50 (OVCAR-4) was 43.1 µM (inactive) and the GI50 (HCT-116) was 27.2 µM (inactive). For the same compound, the GI50 (SNB-75) was 20.5 µM (inactive), the GI50 (LOX IMVI) was 32 µM (inactive) and the GI50 (MCF7) was 36.5 µM (inactive). For the same compound, the GI50 (SK-MEL-28) was 35.9 µM (inactive), the GI50 (EKVX) was 22.2 µM (inactive) and the GI50 (RPMI-8226) was 20.5 µM (inactive). The GI50 (Malme-3M) was 21.1 µM (inactive), the GI50 (A549) was 29.4 µM (inactive) and the GI50 (SK-MEL-5) was 16 µM (inactive). The GI50 (NCI/ADR-RES) was > 100 µM (inactive), the GI50 (SF-268) was 42.6 µM (inactive) and the GI50 (CAKI-1) was 57.1 µM (inactive). For the same compound, the GI50 (HOP-62) was > 100 µM (inactive), the GI50 (SN12C) was 33.4 µM (inactive) and the GI50 (BT-549) was 37.3 µM (inactive). The GI50 (HT-29) was 22.2 µM (inactive), the GI50 (SW-620) was 57.1 µM (inactive) and the GI50 (UACC-62) was 20.2 µM (inactive).

For COc1ccc(C2OC[C@H]3O[C@@H](OCc4ccccc4)[C@H](O)[C@@H](O)[C@@H]3O2)cc1 (stereo partly drawn), the GI50 (OVCAR-3) was > 100 µM (inactive), the GI50 (SF-295) was > 100 µM (inactive) and the GI50 (NCI-H23) was > 100 µM (inactive). For the same compound, the GI50 (CCRF-CEM) was 52.7 µM (inactive), the GI50 (PC-3) was 99.8 µM (inactive) and the GI50 (U-251) was > 100 µM (inactive). For the same compound, the GI50 (DU-145) was > 100 µM (inactive), the GI50 (HOP-92) was 35.8 µM (inactive) and the GI50 (HCT-15) was > 100 µM. For the same compound, the GI50 (K562) was > 100 µM (inactive), the GI50 (SK-MEL-2) was > 100 µM (inactive) and the GI50 (MDA-N) was > 100 µM (inactive). For the same compound, the GI50 (MDA-MB-435) was > 100 µM (inactive), the GI50 (MOLT-4) was 41.9 µM (inactive) and the GI50 (SK-OV-3) was > 100 µM (inactive). The GI50 (ACHN) was > 100 µM (inactive), the GI50 (OVCAR-5) was > 100 µM (inactive) and the GI50 (TK-10) was > 100 µM (inactive). For the same compound, the GI50 (UO-31) was > 100 µM (inactive), the GI50 (RXF 393) was > 100 µM (inactive) and the GI50 (UACC-257) was > 100 µM (inactive). For the same compound, the GI50 (A498) was > 100 µM (inactive), the GI50 (MDA-MB-231) was > 100 µM (inactive) and the GI50 (SF-539) was > 100 µM (inactive). For the same compound, the GI50 (NCI-H226) was 23.2 µM (inactive), the GI50 (COLO 205) was > 100 µM (inactive) and the GI50 (SNB-19) was > 100 µM (inactive). The GI50 (NCI-H460) was > 100 µM (inactive), the GI50 (HCC 2998) was > 100 µM (inactive) and the GI50 (OVCAR-8) was > 100 µM (inactive). The GI50 (IGROV-1) was 55 µM (inactive), the GI50 (OVCAR-4) was 84.5 µM (inactive) and the GI50 (HCT-116) was > 100 µM (inactive). The GI50 (SNB-75) was 2.29 µM (inactive), the GI50 (LOX IMVI) was > 100 µM (inactive) and the GI50 (MCF7) was > 100 µM (inactive). The GI50 (SK-MEL-28) was > 100 µM (inactive), the GI50 (EKVX) was 68.5 µM (inactive) and the GI50 (SR) was 67.9 µM (inactive). The GI50 (RPMI-8226) was 76.9 µM (inactive), the GI50 (A549) was > 100 µM (inactive) and the GI50 (SK-MEL-5) was 58.2 µM (inactive). For the same compound, the GI50 (NCI/ADR-RES) was > 100 µM (inactive), the GI50 (Hs-578T) was 55.5 µM (inactive) and the GI50 (SF-268) was > 100 µM (inactive). The GI50 (CAKI-1) was > 100 µM (inactive), the GI50 (HOP-62) was > 100 µM (inactive) and the GI50 (SN12C) was > 100 µM (inactive). The GI50 (BT-549) was > 100 µM (inactive), the GI50 (HT-29) was > 100 µM (inactive) and the GI50 (SW-620) was > 100 µM (inactive). For the same compound, the GI50 (UACC-62) was > 100 µM (inactive).
